*1 amine or outer side, *2 acyl side, *3 side chain or, on linkers, in order; H or OH if unused. Where a SMILES comes first, the peptide text is derived from it. Side-chain parts run from the residue outwards. [ ]: non-standard residue; d: D form. The star is where a group is joined. C18 diacid = O=C(O)CCCCCCCCCCCCCCCCC(=O)*; γGlu = O=C(O)[C@H](CCC(=O)[*:2])N[*:1]; Palmitoyl = CCCCCCCCCCCCCCCC(=O)*; AEEA = NCCOCCOCC(=O)O; Aib = CC(C)(N)C(=O)O
Key:
[1] = target: human GCGR (Homo sapiens, UniProt P47871); experiment: Peptide-receptor mediated cAMP accumulation (LANCE Ultra cAMP) in CHO-K1 cells transfected with human GCGR; type: cell-based; settings: read-out: GluR pEC50 (converted)
human GCGR, sequence (P47871 26-477): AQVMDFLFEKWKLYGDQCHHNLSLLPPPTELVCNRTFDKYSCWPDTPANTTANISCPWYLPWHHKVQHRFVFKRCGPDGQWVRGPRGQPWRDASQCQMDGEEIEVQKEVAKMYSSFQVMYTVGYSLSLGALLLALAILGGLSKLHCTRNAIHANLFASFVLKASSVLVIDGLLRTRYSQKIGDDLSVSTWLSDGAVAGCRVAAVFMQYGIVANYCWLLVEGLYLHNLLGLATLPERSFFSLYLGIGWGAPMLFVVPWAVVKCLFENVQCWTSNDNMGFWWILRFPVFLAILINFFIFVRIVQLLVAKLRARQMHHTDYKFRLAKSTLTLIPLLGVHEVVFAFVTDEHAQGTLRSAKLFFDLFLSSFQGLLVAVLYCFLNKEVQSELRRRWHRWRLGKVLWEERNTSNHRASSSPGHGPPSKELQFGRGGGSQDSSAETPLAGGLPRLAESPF

[2] = target: human GLP-1R (Homo sapiens, UniProt P43220); experiment: Peptide-receptor mediated cAMP accumulation (LANCE Ultra cAMP) in CHO-K1 cells transfected with human GLP-1R; type: cell-based; settings: Table 7; GLP-1R; read-out: GLP-1R pEC50 (converted)
human GLP-1R, sequence (P43220 24-463): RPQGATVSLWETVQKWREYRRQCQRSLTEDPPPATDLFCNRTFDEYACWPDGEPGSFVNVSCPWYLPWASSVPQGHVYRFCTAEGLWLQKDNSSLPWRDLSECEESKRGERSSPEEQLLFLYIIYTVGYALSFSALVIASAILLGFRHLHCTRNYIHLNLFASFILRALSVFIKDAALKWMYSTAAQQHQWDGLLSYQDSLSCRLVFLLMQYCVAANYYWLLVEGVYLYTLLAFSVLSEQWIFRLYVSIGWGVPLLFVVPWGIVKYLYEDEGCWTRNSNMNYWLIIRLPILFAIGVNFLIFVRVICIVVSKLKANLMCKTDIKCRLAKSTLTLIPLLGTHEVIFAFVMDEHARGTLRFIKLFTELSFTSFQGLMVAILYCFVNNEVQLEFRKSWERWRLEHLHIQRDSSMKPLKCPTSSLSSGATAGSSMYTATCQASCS

Compound: CC(C)C[C@H](NC(=O)[C@H](Cc1ccc(O)cc1)NC(=O)[C@H](CCCCN)NC(=O)[C@H](CO)NC(=O)[C@H](CCCCNC(=O)COCCOCCNC(=O)COCCOCCNC(=O)CC[C@H](NC(=O)CCCCCCCCCCCCCCCCC(=O)O)C(=O)O)NC(=O)[C@H](CC(=O)O)NC(=O)[C@H](CO)NC(=O)[C@@H](NC(=O)[C@H](Cc1ccccc1)NC(=O)[C@@H](NC(=O)CNC(=O)[C@H](Cc1c[nH]cn1)NC(=O)[C@H](CO)NC(=O)[C@@H](N)Cc1ccc(O)cc1)[C@@H](C)O)[C@@H](C)O)C(=O)N[C@@H](CC(=O)O)C(=O)NC(C)(C)C(=O)N[C@@H](CCCCN)C(=O)N[C@@H](Cc1ccc(O)cc1)C(=O)N[C@@H](C)C(=O)N[C@@H](CCC(N)=O)C(=O)N[C@@H](CCC(=O)O)C(=O)N[C@@H](Cc1ccccc1)C(=O)N[C@H](C(=O)NC(C)(C)C(=O)N[C@@H](Cc1c[nH]c2ccccc12)C(=O)N[C@@H](CC(C)C)C(=O)N[C@@H](CCC(=O)O)C(=O)N[C@@H](CC(=O)O)C(=O)N[C@@H](CCC(=O)O)C(=O)N1CCC[C@H]1C(=O)N[C@@H](CO)C(=O)N[C@@H](CO)C(=O)NCC(=O)N[C@@H](C)C(=O)N1CCC[C@H]1C(=O)N1CCC[C@H]1C(=O)N1CCC[C@H]1C(=O)N[C@@H](CO)C(=O)O)C(C)C [Compound B8] (H-YSHGTFTSDK([AEEA-AEEA-γGlu-C18 diacid])SKYLD[Aib]KYAQEFV[Aib]WLEDEPSSGAPPPS-OH)
- EC50 [1]: 0.0251 nM
- EC50 [2]: > 1000 nM

Compound: CCCCCCCCCCCCCCCC(=O)N[C@@H](CCC(=O)NCCCC[C@H](NC(=O)[C@@H](NC(=O)[C@H](Cc1ccccc1)NC(=O)[C@H](CCC(=O)O)NC(=O)[C@H](CCC(N)=O)NC(=O)[C@H](C)NC(=O)[C@H](CO)NC(=O)[C@H](CCCCN)NC(=O)C(C)(C)NC(=O)[C@H](CC(=O)O)NC(=O)[C@H](CC(C)C)NC(=O)[C@H](Cc1ccc(O)cc1)NC(=O)[C@H](CCCCN)NC(=O)[C@H](CO)NC(=O)[C@H](Cc1ccc(O)cc1)NC(=O)[C@H](CC(=O)O)NC(=O)[C@H](CO)NC(=O)[C@@H](NC(=O)[C@H](Cc1ccccc1)NC(=O)[C@@H](NC(=O)CNC(=O)[C@H](Cc1c[nH]cn1)NC(=O)[C@H](CO)NC(=O)[C@@H](N)Cc1ccc(O)cc1)[C@@H](C)O)[C@@H](C)O)C(C)C)C(=O)N[C@@H](Cc1c[nH]c2ccccc12)C(=O)N[C@@H](CC(C)C)C(=O)N[C@@H](CCC(=O)O)C(=O)N[C@@H](CC(=O)O)C(=O)N[C@@H](CCC(=O)O)C(=O)N1CCC[C@H]1C(=O)N[C@@H](CO)C(=O)N[C@@H](CO)C(=O)NCC(=O)N[C@@H](C)C(=O)N1CCC[C@H]1C(=O)N1CCC[C@H]1C(=O)N1CCC[C@H]1C(=O)N[C@@H](CO)C(=O)O)C(=O)O [Compound B10]
- EC50 [1]: 0.126 nM
- EC50 [2]: > 1000 nM

Compound: CCCCCCCCCCCCCCCC(=O)N[C@@H](CCC(=O)NCCCC[C@H](NC(=O)[C@H](CC(=O)O)NC(=O)[C@H](CC(C)C)NC(=O)[C@H](Cc1ccc(O)cc1)NC(=O)[C@H](CCCCN)NC(=O)[C@H](CO)NC(=O)[C@H](Cc1ccc(O)cc1)NC(=O)[C@H](CC(=O)O)NC(=O)[C@H](CO)NC(=O)[C@@H](NC(=O)[C@H](Cc1ccccc1)NC(=O)[C@@H](NC(=O)CNC(=O)[C@H](Cc1c[nH]cn1)NC(=O)[C@H](CO)NC(=O)[C@@H](N)Cc1ccc(O)cc1)[C@@H](C)O)[C@@H](C)O)C(=O)N[C@@H](CCCCN)C(=O)N[C@@H](CO)C(=O)N[C@@H](C)C(=O)N[C@@H](CCC(N)=O)C(=O)N[C@@H](CCC(=O)O)C(=O)N[C@@H](Cc1ccccc1)C(=O)N[C@H](C(=O)NC(C)(C)C(=O)N[C@@H](Cc1c[nH]c2ccccc12)C(=O)N[C@@H](CC(C)C)C(=O)N[C@@H](CCC(=O)O)C(=O)N[C@@H](CC(=O)O)C(=O)N[C@@H](CCC(=O)O)C(=O)N1CCC[C@H]1C(=O)N[C@@H](CO)C(=O)N[C@@H](CO)C(=O)NCC(=O)N[C@@H](C)C(=O)N1CCC[C@H]1C(=O)N1CCC[C@H]1C(=O)N1CCC[C@H]1C(=O)N[C@@H](CO)C(=O)O)C(C)C)C(=O)O [Compound B11]
- EC50 [1]: 0.0501 nM
- EC50 [2]: 501 nM

Compound: CCCCCCCCCCCCCCCC(=O)N[C@@H](CCC(=O)NCCCC[C@H](NC(=O)[C@H](CC(=O)O)NC(=O)[C@H](CO)NC(=O)[C@@H](NC(=O)[C@H](Cc1ccccc1)NC(=O)[C@@H](NC(=O)CNC(=O)[C@H](Cc1c[nH]cn1)NC(=O)[C@H](CO)NC(=O)[C@@H](N)Cc1ccc(O)cc1)[C@@H](C)O)[C@@H](C)O)C(=O)N[C@@H](CO)C(=O)N[C@@H](CCCCN)C(=O)N[C@@H](Cc1ccc(O)cc1)C(=O)N[C@@H](CC(C)C)C(=O)N[C@@H](CC(=O)O)C(=O)NC(C)(C)C(=O)N[C@@H](CCCCN)C(=O)N[C@@H](CO)C(=O)N[C@@H](C)C(=O)N[C@@H](CCC(N)=O)C(=O)N[C@@H](CCC(=O)O)C(=O)N[C@@H](Cc1ccccc1)C(=O)N[C@H](C(=O)NC(C)(C)C(=O)N[C@@H](Cc1c[nH]c2ccccc12)C(=O)N[C@@H](CC(C)C)C(=O)N[C@@H](CCC(=O)O)C(=O)N[C@@H](CC(=O)O)C(=O)N[C@@H](CCC(=O)O)C(=O)N1CCC[C@H]1C(=O)N[C@@H](CO)C(=O)N[C@@H](CO)C(=O)NCC(=O)N[C@@H](C)C(=O)N1CCC[C@H]1C(=O)N1CCC[C@H]1C(=O)N1CCC[C@H]1C(=O)N[C@@H](CO)C(=O)O)C(C)C)C(=O)O [Compound B12] (H-YSHGTFTSDK([γGlu-Palmitoyl])SKYLD[Aib]KSAQEFV[Aib]WLEDEPSSGAPPPS-OH)
- EC50 [1]: 0.00316 nM
- EC50 [2]: 63.1 nM

Compound: CC(C)C[C@H](NC(=O)[C@H](Cc1ccc(O)cc1)NC(=O)[C@H](CCCCN)NC(=O)[C@H](CO)NC(=O)[C@H](Cc1ccc(O)cc1)NC(=O)[C@H](CC(=O)O)NC(=O)[C@H](CO)NC(=O)[C@@H](NC(=O)[C@H](Cc1ccccc1)NC(=O)[C@@H](NC(=O)CNC(=O)[C@H](Cc1c[nH]cn1)NC(=O)[C@H](CO)NC(=O)[C@@H](N)Cc1ccc(O)cc1)[C@@H](C)O)[C@@H](C)O)C(=O)N[C@@H](CC(=O)O)C(=O)NC(C)(C)C(=O)N[C@@H](CCCCN)C(=O)N[C@@H](CO)C(=O)N[C@@H](C)C(=O)N[C@@H](CCC(N)=O)C(=O)N[C@@H](CCC(=O)O)C(=O)N[C@@H](Cc1ccccc1)C(=O)N[C@H](C(=O)NC(C)(C)C(=O)N[C@@H](Cc1c[nH]c2ccccc12)C(=O)N[C@@H](CC(C)C)C(=O)N[C@@H](CCC(=O)O)C(=O)N[C@@H](CC(=O)O)C(=O)N[C@@H](CCC(=O)O)C(=O)N1CCC[C@H]1C(=O)N[C@@H](CO)C(=O)N[C@@H](CO)C(=O)N[C@@H](CCCCNC(=O)COCCOCCNC(=O)COCCOCCNC(=O)CC[C@H](NC(=O)CCCCCCCCCCCCCCCCC(=O)O)C(=O)O)C(=O)N[C@@H](C)C(=O)N1CCC[C@H]1C(=O)N1CCC[C@H]1C(=O)N1CCC[C@H]1C(=O)N[C@@H](CO)C(=O)O)C(C)C [Compound B13]
- EC50 [1]: 0.631 nM
- EC50 [2]: > 1000 nM

Source: patent publication US20240239861A1, “GLUCAGON-RECEPTOR SELECTIVE POLYPEPTIDES AND METHODS OF USE THEREOF” (i2O Therapeutics, Inc., priority 2016, published 2024)
